Data published in PubChem BioAssay (NCI).
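Where inhibition never reached the appropriate level, the endpoint shown equals the highest concentration tested. Otherwise, values were interpolated linearly from a five-concentration, 48-hour dose response in 96-well plates. The concentration for full growth arrest is given as TGI.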

How the values were obtained:
Assay in all cases: DTP human tumour cell line panel, 48 h
HOP-92 NSCLC = system: HOP-92 NSCLC
UACC-257 melanoma = system: UACC-257 melanoma
ACHN renal = system: ACHN renal
KM12 colon = system: KM12 colon
MALME-3M melanoma = system: MALME-3M melanoma
SN12C renal = system: SN12C renal
UO-31 renal = system: UO-31 renal
CCRF-CEM leukemia = system: CCRF-CEM leukemia
SK-MEL-28 melanoma = system: SK-MEL-28 melanoma
OVCAR-3 ovarian = system: OVCAR-3 ovarian
OVCAR-4 ovarian = system: OVCAR-4 ovarian
IGROV1 ovarian = system: IGROV1 ovarian
NCI-H226 lung = system: NCI-H226 lung
HS 578T breast = system: HS 578T breast
K-562 leukemia = system: K-562 leukemia
RXF 393 renal = system: RXF 393 renal
SF-539 CNS = system: SF-539 CNS
HCT-116 colon = system: HCT-116 colon
HCT-15 colon = system: HCT-15 colon
MDA-MB-231 breast = system: MDA-MB-231 breast
SK-OV-3 ovarian = system: SK-OV-3 ovarian
NCI-H522 lung = system: NCI-H522 lung
MCF7 breast = system: MCF7 breast
786-0 renal = system: 786-0 renal
SNB-19 CNS = system: SNB-19 CNS
NCI-H23 lung = system: NCI-H23 lung
OVCAR-8 ovarian = system: OVCAR-8 ovarian
MDA-N = system: MDA-N
COLO 205 colon = system: COLO 205 colon
OVCAR-5 ovarian = system: OVCAR-5 ovarian
T-47D breast = system: T-47D breast
HOP-62 NSCLC = system: HOP-62 NSCLC
HL-60(TB) leukemia = system: HL-60(TB) leukemia
HCC-2998 colon = system: HCC-2998 colon
DU-145 prostate = system: DU-145 prostate
PC-3 prostate = system: PC-3 prostate
SF-295 CNS = system: SF-295 CNS
A549 NSCLC = system: A549 NSCLC
NCI/ADR-RES ovarian = system: NCI/ADR-RES ovarian
SR leukemia = system: SR leukemia
A498 renal = system: A498 renal
LOX IMVI melanoma = system: LOX IMVI melanoma
SK-MEL-5 melanoma = system: SK-MEL-5 melanoma
M14 melanoma = system: M14 melanoma
SF-268 CNS = system: SF-268 CNS
HT29 colon = system: HT29 colon
MDA-MB-435 = system: MDA-MB-435
UACC-62 melanoma = system: UACC-62 melanoma
RPMI-8226 leukemia = system: RPMI-8226 leukemia
EKVX NSCLC = system: EKVX NSCLC
SNB-75 CNS = system: SNB-75 CNS
CAKI-1 renal = system: CAKI-1 renal
SK-MEL-2 melanoma = system: SK-MEL-2 melanoma
U251 CNS = system: U251 CNS
SW-620 colon = system: SW-620 colon
MOLT-4 leukemia = system: MOLT-4 leukemia
BT-549 breast = system: BT-549 breast
TK-10 renal = system: TK-10 renal
NCI-H460 lung = system: NCI-H460 lung

Question: Which results are given for C=C1C2CC[C@@](C)(O)C2[C@H]2OC(=O)C(=C)[C@@H]2C[C@H]1O (stereo not given in full)?
Answer: TGI (HOP-92 NSCLC): 88.9 µM; TGI (UACC-257 melanoma): 41.8 µM; TGI (ACHN renal): 22.7 µM; TGI (KM12 colon): 46.2 µM; TGI (MALME-3M melanoma): 30.5 µM; TGI (SN12C renal): 59 µM; TGI (UO-31 renal): 31.5 µM; TGI (CCRF-CEM leukemia): 17.9 µM; TGI (SK-MEL-28 melanoma): 72.8 µM; TGI (OVCAR-3 ovarian): 64.1 µM; TGI (OVCAR-4 ovarian): 30.3 µM; TGI (IGROV1 ovarian): > 100 µM; TGI (NCI-H226 lung): 40.1 µM; TGI (HS 578T breast): 71.5 µM; TGI (K-562 leukemia): > 100 µM; TGI (RXF 393 renal): 71.9 µM; TGI (SF-539 CNS): 27.2 µM; TGI (HCT-116 colon): > 100 µM; TGI (HCT-15 colon): 45.9 µM; TGI (MDA-MB-231 breast): 80.1 µM; TGI (SK-OV-3 ovarian): 80.2 µM; TGI (NCI-H522 lung): 35.6 µM; TGI (MCF7 breast): 27.3 µM; TGI (786-0 renal): 39.2 µM; TGI (SNB-19 CNS): > 100 µM; TGI (NCI-H23 lung): 36 µM; TGI (OVCAR-8 ovarian): 56.5 µM; TGI (MDA-N): 91.1 µM; TGI (COLO 205 colon): 37.6 µM; TGI (OVCAR-5 ovarian): > 100 µM; TGI (T-47D breast): 42.1 µM; TGI (HOP-62 NSCLC): > 100 µM; TGI (HL-60(TB) leukemia): > 100 µM; TGI (HCC-2998 colon): 37.3 µM; TGI (DU-145 prostate): 35.5 µM; TGI (PC-3 prostate): > 100 µM; TGI (SF-295 CNS): > 100 µM; TGI (A549 NSCLC): > 100 µM; TGI (NCI/ADR-RES ovarian): 45.8 µM; TGI (SR leukemia): > 100 µM; TGI (A498 renal): > 100 µM; TGI (LOX IMVI melanoma): 35 µM; TGI (SK-MEL-5 melanoma): 28.8 µM; TGI (M14 melanoma): 31.9 µM; TGI (SF-268 CNS): > 100 µM; TGI (HT29 colon): 32.7 µM; TGI (MDA-MB-435): > 100 µM; TGI (UACC-62 melanoma): 30.1 µM; TGI (RPMI-8226 leukemia): > 100 µM; TGI (EKVX NSCLC): > 100 µM; TGI (SNB-75 CNS): > 100 µM; TGI (CAKI-1 renal): 27.2 µM; TGI (SK-MEL-2 melanoma): 50.7 µM; TGI (U251 CNS): > 100 µM; TGI (SW-620 colon): > 100 µM; TGI (MOLT-4 leukemia): 60 µM; TGI (BT-549 breast): 24.8 µM; TGI (TK-10 renal): 37.8 µM

Question: How did the TGI (HOP-92 NSCLC) turn out when O=[N+]([O-])c1ccc(/C(=C\c2ccccc2)Cn2ccnc2)cc1 was run?
Answer: The TGI was 79.9 µM.

Question: What about the TGI (UACC-257 melanoma) of the same compound?
Answer: The TGI was > 100 µM.

Question: And the TGI (ACHN renal)?
Answer: Its TGI is > 100 µM.

Question: What about the TGI (KM12 colon) of the same compound?
Answer: Its TGI is > 100 µM.

Question: And the TGI (MALME-3M melanoma)?
Answer: Its TGI is > 100 µM.

Question: And the TGI (SN12C renal)?
Answer: Its TGI is > 100 µM.

Question: What about the TGI (UO-31 renal) of the same compound?
Answer: The TGI was > 100 µM.

Question: And the TGI (CCRF-CEM leukemia)?
Answer: The TGI was > 100 µM.

Question: What about the TGI (SK-MEL-28 melanoma) of the same compound?
Answer: The TGI was > 100 µM.

Question: And the TGI (OVCAR-4 ovarian)?
Answer: The TGI was > 100 µM.

Question: What about the TGI (IGROV1 ovarian) of the same compound?
Answer: The TGI was > 100 µM.

Question: And the TGI (NCI-H226 lung)?
Answer: Its TGI is > 100 µM.

Question: And the TGI (HS 578T breast)?
Answer: The TGI was 69.9 µM.

Question: And the TGI (K-562 leukemia)?
Answer: The TGI was 69.2 µM.

Question: And the TGI (RXF 393 renal)?
Answer: The TGI was > 100 µM.

Question: What about the TGI (SF-539 CNS) of the same compound?
Answer: The TGI was > 100 µM.

Question: And the TGI (HCT-116 colon)?
Answer: Its TGI is > 100 µM.

Question: What about the TGI (HCT-15 colon) of the same compound?
Answer: Its TGI is > 100 µM.

Question: And the TGI (MDA-MB-231 breast)?
Answer: Its TGI is 87.8 µM.

Question: What about the TGI (SK-OV-3 ovarian) of the same compound?
Answer: The TGI was > 100 µM.

Question: What about the TGI (NCI-H522 lung) of the same compound?
Answer: Its TGI is 57.8 µM.

Question: And the TGI (MCF7 breast)?
Answer: The TGI was > 100 µM.

Question: And the TGI (786-0 renal)?
Answer: The TGI was > 100 µM.

Question: And the TGI (SNB-19 CNS)?
Answer: The TGI was > 100 µM.

Question: And the TGI (NCI-H23 lung)?
Answer: Its TGI is > 100 µM.

Question: What about the TGI (OVCAR-8 ovarian) of the same compound?
Answer: Its TGI is > 100 µM.

Question: What about the TGI (MDA-N) of the same compound?
Answer: The TGI was 75.1 µM.

Question: What about the TGI (COLO 205 colon) of the same compound?
Answer: The TGI was 30 µM.

Question: What about the TGI (OVCAR-5 ovarian) of the same compound?
Answer: The TGI was > 100 µM.

Question: And the TGI (T-47D breast)?
Answer: Its TGI is > 100 µM.

Question: And the TGI (HOP-62 NSCLC)?
Answer: Its TGI is > 100 µM.

Question: And the TGI (HL-60(TB) leukemia)?
Answer: Its TGI is 46.4 µM.

Question: What about the TGI (HCC-2998 colon) of the same compound?
Answer: The TGI was > 100 µM.

Question: And the TGI (DU-145 prostate)?
Answer: The TGI was > 100 µM.

Question: What about the TGI (PC-3 prostate) of the same compound?
Answer: The TGI was 95.7 µM.

Question: What about the TGI (SF-295 CNS) of the same compound?
Answer: Its TGI is > 100 µM.

Question: And the TGI (A549 NSCLC)?
Answer: Its TGI is > 100 µM.

Question: What about the TGI (NCI/ADR-RES ovarian) of the same compound?
Answer: The TGI was 66 µM.

Question: And the TGI (SR leukemia)?
Answer: Its TGI is > 100 µM.

Question: What about the TGI (A498 renal) of the same compound?
Answer: Its TGI is 72 µM.

Question: What about the TGI (LOX IMVI melanoma) of the same compound?
Answer: The TGI was 54.1 µM.

Question: And the TGI (SK-MEL-5 melanoma)?
Answer: Its TGI is 94.4 µM.

Question: What about the TGI (M14 melanoma) of the same compound?
Answer: The TGI was > 100 µM.

Question: What about the TGI (HT29 colon) of the same compound?
Answer: The TGI was 67.1 µM.

Question: What about the TGI (MDA-MB-435) of the same compound?
Answer: Its TGI is > 100 µM.

Question: What about the TGI (UACC-62 melanoma) of the same compound?
Answer: The TGI was > 100 µM.

Question: What about the TGI (RPMI-8226 leukemia) of the same compound?
Answer: The TGI was > 100 µM.

Question: What about the TGI (EKVX NSCLC) of the same compound?
Answer: The TGI was > 100 µM.

Question: What about the TGI (SNB-75 CNS) of the same compound?
Answer: Its TGI is 86.4 µM.

Question: What about the TGI (CAKI-1 renal) of the same compound?
Answer: Its TGI is 45.6 µM.

Question: What about the TGI (SK-MEL-2 melanoma) of the same compound?
Answer: The TGI was 61.1 µM.

Question: What about the TGI (U251 CNS) of the same compound?
Answer: The TGI was > 100 µM.

Question: And the TGI (SW-620 colon)?
Answer: Its TGI is > 100 µM.

Question: And the TGI (MOLT-4 leukemia)?
Answer: The TGI was > 100 µM.

Question: And the TGI (NCI-H460 lung)?
Answer: The TGI was > 100 µM.

Question: What about the TGI (BT-549 breast) of the same compound?
Answer: The TGI was 87.8 µM.

Question: And the TGI (TK-10 renal)?
Answer: The TGI was > 100 µM.
